These results are taken from patent US20230271965A1, “BICYCLIC HETEROARENES AND METHODS OF THEIR USE” (Kineta, Inc., priority 2020, published 2023).

The target of assay [1] is T1, PIKfyve (PIKFYVE-NanoLuc fusion in HEK293 cells) (Homo sapiens, UniProt Q9Y2I7).
T1 construct: containing a full-length PIKfyve according to manufacturer's specifications; host or cells: HEK293
The experiment in a line: NanoBRET TE Intracellular Kinase Assay, K-8 (Promega) cell-based assay. Particulars: 2 hours, read-out: hPIKfyve BRET IC50. As to the method: NanoBRET™ TE Intracellular Kinase Assay, K-8 (Promega) Cell-Based Assay. Intracellular inhibition of PIKfyve was assayed using Promega's NanoBRET™ TE Intracellular Kinase Assay, K-8 according to manufacturer's instructions. A dilution series of test compounds was added for 2 hours to HEK293 cells transfected for a minimum of 20 hours with PIKFYVE-NanoLuc® Fusion Vector (Promega) containing a full-length PIKfyve according to manufacturer's specifications in a 96-well plate. Kinase activity was detected by addition of a NanoBRET™ tracer reagent, which was a proprietary PIKfyve inhibitor appended to a fluorescent probe (BRET, bioluminescence resonance energy transfer). Test compounds were tested at concentrations of 10, 3, 1, 0.3, 0.1, 0.03, 0.01, 0.003 μM. BRET signals were measured by a GloMax® Discover Multimode Microplate Reader (Promega) using 0.3 sec/well integration time, 450BP donor filter and 600LP acceptor filters. Active test compounds that bound PIKfyve and displaced the tracer reduced BRET signal. IC50 values were then calculated by fitting the data to the normalized BRET ratio.

The target of assay [2] is T2, full-length human PIKFYVE (GST-PIKFYVE) (Homo sapiens, UniProt Q9Y2I7, L932S/Q1183K/Q995L/S1033A/S696N/T998S).
T2 construct: A full-length human PIKFYVE [1-2098 (end) amino acids; purchased Carna Biosciences; host or cells: baculovirus expression system
Kind of assay: PIKfyve biochemical assay (ADP-Glo Kinase assay, Carna Biosciences). Particulars: ADP-Glo, full-length human PIKFYVE; read-out: hPIKfyve IC50. On the procedure: PIKfyve Biochemical Assay. The biochemical PIKFyve inhibition assays were run by Carna Biosciences according to proprietary methodology based on the Promega ADP-Glo™ Kinase assay. […] GST-PIKFYVE was purified by using glutathione sepharose chromatography and used in an ADP-Glo™ Kinase assay (Promega). Reactions were set up by adding the test compound solution, substrate solution, ATP solution and kinase solution, each at 4×final concentrations. Reactions were prepared with assay buffer (50 mM MOPS, 1 mM DTT, pH7.2), mixed, and incubated in black 384 well polystyrene plates for 1 hour at room temperature. ADP-Glo™ reagent was then added for 40 minutes, followed by kinase detection reagent for an additional 40 minutes. The kinase activity was evaluated by detecting relative light units on a luminescence plate reader. Samples were run in duplicate from 10 μM to 3 nM. […] IC50 values were calculated from concentration vs % inhibition curves by fitting to a four-parameter logistic curve.
The biochemical PIKFyve inhibition assays were run by Carna Biosciences according to proprietary methodology based on the Promega ADP-Glo™ Kinase assay. […] GST-PIKFYVE was purified by using glutathione sepharose chromatography and used in an ADP-Glo™ Kinase assay (Promega).
Reactions were set up by adding the test compound solution, substrate solution, ATP solution and kinase solution, each at 4×final concentrations. Reactions were prepared with assay buffer (50 mM MOPS, 1 mM DTT, pH7.2), mixed, and incubated in black 384 well polystyrene plates for 1 hour at room temperature. ADP-Glo™ reagent was then added for 40 minutes, followed by kinase detection reagent for an additional 40 minutes. The kinase activity was evaluated by detecting relative light units on a luminescence plate reader. Samples were run in duplicate from 10 uM to 3 nM. […] IC50 values were calculated from concentration vs % inhibition curves by fitting to a four-parameter logistic curve.

Assay [3] relates to FAB1 TDP-43 yeast strain. Kind of assay: Propidium iodide viability assay, control FAB1 TDP-43 yeast strain. Type of assay: cell-based. Particulars: across a range of compound concentrations (only 0.23 μM is shown), FIG. 5. On the procedure:
Generation of TDP-43 yeast model expressing human PIKfyve. Human PIKFYVE (“entry clone”) was cloned into pAG416GPDccdB (“destination vector”) according to standard Gateway cloning protocols (Invitrogen, Life Technologies). The resulting pAG416GPD-PIKFYVE plasmids were amplified in E. coli and plasmid identity confirmed by restriction digest and Sanger sequencing. […]
Transformed yeast were plated on solid agar plates with complete synthetic media lacking uracil (CSM-ura) and containing 2% glucose. […] Multiple independent isolates were further evaluated for cytotoxicity and TDP-43 expression levels.
Viability Assay. A control yeast strain with the wild-type yeast FAB1 gene and TDP-43 (“FAB1 TDP-43”, carries empty pAG416 plasmid), and the “PIKFYVE TDP-43” yeast strain, were assessed for toxicity using a propidium iodide viability assay. […] Wells containing DMSO alone were also evaluated as controls for compound effects. […]
Upon the completion of incubation, cultures were assayed for viability using propidium iodide (PI) to stain for dead/dying cells. […] A benchtop flow cytometer (Miltenyi MACSquant) was then used to assess red fluorescence ([…]), forward scatter, and side scatter (with following settings: gentle mix, high flow rate, fast measurement, 10,000 events). […]

The subject of assay [4] is PIKFYVE TDP-43 yeast strain. The experiment in a line: Propidium iodide viability assay, PIKFYVE TDP-43 yeast strain. It is filed as cell-based. Particulars: concentrations ranging from 0.5 mM to less than 100 nM.
Assay [5] concerns PIKFYVE TDP-43 yeast strain. The assay is described as above. Type of assay: cell-based. Particulars: 0.23 μM, FIG. 6. The text has this:
Generation of TDP-43 yeast model expressing human PIKfyve. Human PIKFYVE (“entry clone”) was cloned into pAG416GPDccdB (“destination vector”) according to standard Gateway cloning protocols (Invitrogen, Life Technologies). The resulting pAG416GPD-PIKFYVE plasmids were amplified in E. coli and plasmid identity confirmed by restriction digest and Sanger sequencing. Lithium acetate/polyethylene glycol-based transformation was used to introduce the above PIKFYVE plasmid into a BY4741 yeast strain auxotrophic for the ura3 gene and deleted for two transcription factors that regulate the xenobiotic efflux pumps, a major efflux pump, and FAB1, the yeast ortholog of PIKFYVE (MATa, snq2::KILeu2; pdr3::KIura3; pdr1::NATMX; fab1::G418^R, his3; leu2; ura3; met15; LYS2+) (FIG. 2).
Transformed yeast were plated on solid agar plates with complete synthetic media lacking uracil (CSM-ura) and containing 2% glucose. Individual colonies harboring the control or PIKFYVE TDP-43 plasmids were recovered. A plasmid containing wild-type TDP-43 under the transcriptional control of the GAL1 promoter and containing the hygromycin-resistance gene as a selectable marker was transformed into the fab1::G418^R pAG416GPD-PIKFYVE yeast strain (FIG. 1). Transformed yeast were plated on CSM-ura containing 2% glucose and […] after overnight recovery in media lacking antibiotic. Multiple independent isolates were further evaluated for cytotoxicity and TDP-43 expression levels.
Viability Assay. A control yeast strain with the wild-type yeast FAB1 gene and TDP-43 (“FAB1 TDP-43”, carries empty pAG416 plasmid), and the “PIKFYVE TDP-43” yeast strain, were assessed for toxicity using a propidium iodide viability assay. Both yeast strains were transferred from solid CSM-ura/2% glucose agar plates into 3 mL of liquid CSM-ura/2% glucose media for 6-8 hours at 30° C. with aeration. Yeast cultures were then diluted to an optical density at 600 nm wavelength (OD600) of 0.005 in 3 mL of CSM-ura/2% raffinose and grown overnight at 30° C. with aeration to an OD600 of 0.3-0.8. Log-phase overnight cultures were diluted to OD600 of 0.005 in CSM-ura containing either 2% raffinose or galactose and 150 μL dispensed into each well of a flat bottom 96-well plates. Compounds formulated in 100% dimethyl sulfoxide (DMSO) were serially diluted in DMSO and 1.5 μL diluted compound transferred to the 96-well plates using a multichannel pipet. Wells containing DMSO alone were also evaluated as controls for compound effects. Tested concentrations ranged from 15 μM to […]. Cultures were immediately mixed to ensure compound distribution and covered plates incubated at 30° C. for 24 hours in a stationary, humified incubator.
Upon the completion of incubation, cultures were assayed for viability using propidium iodide (PI) to stain for dead/dying cells. A working solution of PI was made where, for each plate, 1 μL of 10 mM PI was added to 10 mL of CSM-ura (raffinose or galactose). The final PI solution (50 μL/well) was dispensed into each well of a new round bottom 96-well plate. The overnight 96-well assay plate was then mixed with a multichannel pipet and 50 μL transferred to the PI-containing plate. This plate was then incubated for 30 minutes at 30° C. in the dark. A benchtop flow cytometer (Miltenyi MACSquant) was then used to assess red fluorescence ([…]), forward scatter, and side scatter (with following settings: gentle mix, high flow rate, fast measurement, 10,000 events). Intensity histograms were then gated for “PI-positive” or “PI-negative” using the raffinose and galactose cultures treated with DMSO as controls. The DMSO controls for raffinose or galactose-containing cultures were used to determine the window of increased cell death and this difference set to 100. All compounds were similarly gated and then compared to this maximal window to establish the percent reduction in PI-positive cells.

T2 sequence (Q9Y2I7 whole entry S696N/L932S/Q995L/T998S/S1033A/Q1183K): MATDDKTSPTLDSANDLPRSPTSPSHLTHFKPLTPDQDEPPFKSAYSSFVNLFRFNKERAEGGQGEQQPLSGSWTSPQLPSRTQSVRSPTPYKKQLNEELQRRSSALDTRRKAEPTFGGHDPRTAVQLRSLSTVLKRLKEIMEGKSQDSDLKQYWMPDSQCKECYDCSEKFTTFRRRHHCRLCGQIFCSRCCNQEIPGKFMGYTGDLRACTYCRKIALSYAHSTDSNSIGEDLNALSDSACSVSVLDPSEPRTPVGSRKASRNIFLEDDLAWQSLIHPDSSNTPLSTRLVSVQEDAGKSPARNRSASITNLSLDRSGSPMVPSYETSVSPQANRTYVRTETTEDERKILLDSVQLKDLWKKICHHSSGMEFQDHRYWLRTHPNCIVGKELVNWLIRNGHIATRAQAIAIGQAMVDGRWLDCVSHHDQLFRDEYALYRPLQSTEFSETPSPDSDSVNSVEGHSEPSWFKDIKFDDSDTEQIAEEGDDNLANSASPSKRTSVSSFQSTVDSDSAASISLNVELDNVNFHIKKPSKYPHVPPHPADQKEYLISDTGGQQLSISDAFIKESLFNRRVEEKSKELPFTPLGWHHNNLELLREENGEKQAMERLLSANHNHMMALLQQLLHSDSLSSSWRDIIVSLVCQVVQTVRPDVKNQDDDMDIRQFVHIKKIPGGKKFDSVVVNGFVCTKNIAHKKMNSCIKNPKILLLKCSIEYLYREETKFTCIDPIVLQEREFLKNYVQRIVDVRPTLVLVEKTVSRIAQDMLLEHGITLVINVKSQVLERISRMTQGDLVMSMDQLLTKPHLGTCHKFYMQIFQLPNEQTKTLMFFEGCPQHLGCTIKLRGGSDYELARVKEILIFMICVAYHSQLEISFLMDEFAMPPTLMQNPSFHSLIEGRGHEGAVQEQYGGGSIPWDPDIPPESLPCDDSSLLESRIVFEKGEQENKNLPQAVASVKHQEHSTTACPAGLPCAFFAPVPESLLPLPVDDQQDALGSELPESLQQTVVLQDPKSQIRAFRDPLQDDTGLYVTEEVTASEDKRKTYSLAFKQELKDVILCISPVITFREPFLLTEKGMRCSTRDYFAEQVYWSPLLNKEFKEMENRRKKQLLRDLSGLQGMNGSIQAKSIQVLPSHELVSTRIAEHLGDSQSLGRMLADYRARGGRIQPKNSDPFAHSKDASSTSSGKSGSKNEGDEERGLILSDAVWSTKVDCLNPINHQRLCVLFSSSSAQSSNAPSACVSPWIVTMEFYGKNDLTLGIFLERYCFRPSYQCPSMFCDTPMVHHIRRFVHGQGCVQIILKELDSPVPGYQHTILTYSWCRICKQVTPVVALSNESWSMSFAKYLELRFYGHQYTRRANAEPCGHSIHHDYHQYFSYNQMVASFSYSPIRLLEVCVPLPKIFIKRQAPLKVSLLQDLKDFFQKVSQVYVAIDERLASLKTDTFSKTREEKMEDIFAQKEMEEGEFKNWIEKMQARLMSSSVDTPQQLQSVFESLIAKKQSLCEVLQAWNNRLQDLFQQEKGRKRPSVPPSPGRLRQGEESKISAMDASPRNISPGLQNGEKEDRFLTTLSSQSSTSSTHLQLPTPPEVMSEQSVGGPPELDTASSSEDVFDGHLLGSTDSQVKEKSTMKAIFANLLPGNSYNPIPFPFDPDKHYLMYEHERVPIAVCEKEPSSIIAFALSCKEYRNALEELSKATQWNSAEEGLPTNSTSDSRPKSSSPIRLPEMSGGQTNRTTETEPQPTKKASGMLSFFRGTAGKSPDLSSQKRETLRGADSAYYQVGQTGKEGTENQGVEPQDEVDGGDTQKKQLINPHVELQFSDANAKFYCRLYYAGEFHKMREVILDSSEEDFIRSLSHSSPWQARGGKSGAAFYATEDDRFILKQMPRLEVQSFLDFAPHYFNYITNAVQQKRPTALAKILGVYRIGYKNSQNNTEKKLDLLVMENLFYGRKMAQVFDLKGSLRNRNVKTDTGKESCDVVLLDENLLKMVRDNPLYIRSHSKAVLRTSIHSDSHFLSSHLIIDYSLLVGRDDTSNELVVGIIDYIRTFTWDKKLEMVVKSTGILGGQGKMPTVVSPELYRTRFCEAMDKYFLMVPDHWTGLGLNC
T1 sequence (Q9Y2I7 whole entry, the tested form may be a part): as the sequence (Q9Y2I7 whole entry S696N/L932S/Q995L/T998S/S1033A/Q1183K) above, with N696S, S932L, L995Q, S998T, A1033S, K1183Q counted along it

In the case of `c1ccc(N2CCc3c(OCc4cccnc4)nc(N4CCOCC4)nc32)cc1` [Compound 3], in assay [1], the IC50 – broadly, the concentration that gives 50% inhibition – lay in the range of 10 to 100 nM. As for `c1cncc(Oc2nc(N3CCOCC3)nc3c2CCN3c2cccnc2)c1` [Compound 24, 4-(7-(pyridin-3-yl)-4-(pyridin-3-yloxy)-6,7-dihydro-5H-pyrrolo[2,3-d]pyrimidin-2-yl)morpholine], the IC50 in assay [1] lay in the range of 1000 to 10000 nM; in assay [2], 10 to 100 nM. Turning to `c1ccc(N2CCc3c(OCCc4ccccn4)nc(N4CCOCC4)nc32)cc1` [Compound 1, 4-(7-phenyl-4-(2-(pyridin-2-yl)ethoxy)-6,7-dihydro-5H-pyrrolo[2,3-d]pyrimidin-2-yl)morpholine], the IC50 in assay [1] was in the range of 10 to 100 nM. The same measure, in the same setting: in the case of `COc1nc(N2CCOCC2)nc2c1CCN2c1ccccc1` [Compound 16, 4-(4-methoxy-7-phenyl-6,7-dihydro-5H-pyrrolo[2,3-d]pyrimidin-2-yl)morpholine] it was 100 to 1000 nM.

For `c1ccc(N2CCc3c(OCc4cccnn4)nc(N4CCOCC4)nc32)cc1` [Compound 5], the IC50 in assay [1] fell in the range of 100 to 1000 nM. `c1cncc(N2CCc3c(OCCC4CCCO4)nc(N4CCOCC4)nc32)c1` (stereo not shown) [Compound 10]: the IC50 was 100 to 1000 nM in assay [1] and < 10 nM in assay [2].

Take `c1ccc(N2CCc3c(-c4ccncc4)nc(N4CCOCC4)nc32)cc1` [Compound 41, 4-(7-phenyl-4-(pyridin-4-yl)-6,7-dihydro-5H-pyrrolo[2,3-d]pyrimidin-2-yl)morpholine]: the IC50 in assay [1] was 10 to 100 nM; in assay [2], < 10 nM.

`N#Cc1ccc(N2CCc3c(OCc4cccnc4)nc(N4CCOCC4)nc32)cc1` [Compound 21, 4-(2-morpholino-4-(pyridin-3-ylmethoxy)-5H-pyrrolo[2,3-d]pyrimidin-7(6H)-yl)benzonitrile]: the IC50 in assay [1] fell in the range of 100 to 1000 nM.

As for `Cc1cccc(/C=N/Nc2cc(N3CCOCC3)n3nc(-c4ccncc4)cc3n2)c1` [APY0201], in assay [3], the “increase in viable cells in FAB1 TDP-43” value was “no increase in viable cells”. The “viability in PIKFYVE TDP-43 model” value in assay [4] was “increased viability”. In assay [5], the “population of propidium iodide-positive dead cells in PIKFYVE TDP-43” value was “reduced the population of propidium iodide-positive dead cells”.

With `OCC(O)COc1nc(N2CCOCC2)nc2c1CCN2c1ccccc1` (stereo not shown) [Compound 25, 3-((2-morpholino-7-phenyl-6,7-dihydro-5H-pyrrolo[2,3-d]pyrimidin-4-yl)oxy)propane-1,2-diol], the IC50 in assay [1] lay in the range of 100 to 1000 nM. Take `CN1CCC(COc2nc(N3CCOCC3)nc3c2CCN3c2cccnc2)CC1` [Compound 111]: the IC50 in assay [1] lay within 1000 to 10000 nM; in assay [2], 100 to 1000 nM.

For `c1ccc(N2CCc3c(Oc4cccnc4)nc(N4CCOCC4)nc32)cc1` [Compound 22, 4-(7-phenyl-4-(pyridin-3-yloxy)-6,7-dihydro-5H-pyrrolo[2,3-d]pyrimidin-2-yl)morpholine], the figures for the IC50 in assay [1] and in assay [2] were 100 to 1000 nM and < 10 nM, respectively.
